# Experimental data: US10106556B2, “Heterocyclic compound” (TAKEDA PHARMACEUTICAL COMPANY LIMITED, priority 2015, dated 2018)
# Target: T1, His-hMAGL (recombinant polyhistidine tagged human MAGL protein) (Homo sapiens, UniProt Q99685)
# T1 construct: made in house; host or cells: E. coli BL21(DE3)
# T1 sequence (Q99685 1-303): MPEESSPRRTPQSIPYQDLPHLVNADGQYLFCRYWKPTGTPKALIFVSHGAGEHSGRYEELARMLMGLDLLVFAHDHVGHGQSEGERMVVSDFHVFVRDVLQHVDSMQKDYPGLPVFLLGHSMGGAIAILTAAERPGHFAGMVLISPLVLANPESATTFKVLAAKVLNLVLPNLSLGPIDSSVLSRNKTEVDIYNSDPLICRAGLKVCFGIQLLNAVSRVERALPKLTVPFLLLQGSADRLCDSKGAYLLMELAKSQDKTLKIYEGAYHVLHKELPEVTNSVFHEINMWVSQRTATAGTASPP
# Assay: Measurement of MAGL inhibitory activity (arachidonic acid production from 2-arachidonylglycerol, RapidFire-mass spectrometry)
# Format: biochemical
# Conditions: MAGL inhibitory rate at 10 μM test compound, 60 min preincubation with His-hMAGL, 2-arachidonylglycerol substrate, 10 min reaction at room temperature
# Outline: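 Recombinant His-tagged human MAGL converted 2-arachidonylglycerol to arachidonic acid. Reactions received acetonitrile with 3 μM arachidonic acid-d8 as internal standard, and product was quantified by RapidFire SPE (C4) with negative-mode SRM mass spectrometry. Percent inhibition was calculated against compound-free and enzyme-free controls.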
Structure (SMILES),inhibition at 10 µM [%],% inhibition (10 μM) [%]
"O=C1COc2cc(F)c(C(=O)N3CCC(COC4CCC(F)(F)CC4)CC3)cc2N1 [Example 95, 6-((4-(((4,4-difluorocyclohexyl)oxy)methyl)piperidin-1-yl)carbonyl)-7-fluoro-2H-1,4-benzoxazin-3(4H)-one]",97,–
"O=C1COc2ccc(C(=O)N3CCC(COc4ccc(C(F)(F)F)cc4)CC3)cc2N1 [Example 58, 6-((4-((4-(trifluoromethyl)phenoxy)methyl)piperidin-1-yl)carbonyl)-2H-1,4-benzoxazin-3(4H)-one]",100,–
"CC(Oc1cccc(F)c1F)C1CN(C(=O)c2cc3c(cc2F)OCC(=O)N3)C1 (centres unmarked) [Example 310, 6-((3-(1-(2,3-difluorophenoxy)ethyl)azetidin-1-yl)carbonyl)-7-fluoro-2H-1,4-benzoxazin-3(4H)-one]",–,99
"O=C1COc2cc(F)c(C(=O)N3CCC(COc4cccc5scnc45)CC3)cc2N1 [Example 186, 6-((4-((1,3-benzothiazol-4-yloxy)methyl)piperidin-1-yl)carbonyl)-7-fluoro-2H-1,4-benzoxazin-3(4H)-one]",97,–
"O=C1COc2cnc(C(=O)N3CCC(COc4ccc(C(F)(F)F)cc4Cl)CC3)cc2N1 [Example 144, 7-((4-((2-chloro-4-(trifluoromethyl)phenoxy)methyl)piperidin-1-yl)carbonyl)-1H-pyrido[3,4-b][1,4]oxazin-2(3H)-one]",98,–
"CCc1ncccc1-c1cc(Cl)ccc1OCC1CN(C(=O)c2cc3c(cc2F)OCC(=O)N3)C1 [Example 199, 6-((3-((4-chloro-2-(2-ethylpyridin-3-yl)phenoxy)methyl)azetidin-1-yl)carbonyl)-7-fluoro-2H-1,4-benzoxazin-3(4H)-one]",103,–
"O=C1COc2ccc(C(=O)N3CCC(COc4ccc(OC(F)(F)F)cc4)CC3)cc2N1 [Example 55, 6-((4-((4-(trifluoromethoxy)phenoxy)methyl)piperidin-1-yl)carbonyl)-2H-1,4-benzoxazin-3(4H)-one]",96,–
"CC(Oc1ccc(F)cc1F)C1CN(C(=O)c2cc3c(cc2F)OCC(=O)N3)C1 (centres unmarked) [Example 300, 6-((3-(1-(2,4-difluorophenoxy)ethyl)azetidin-1-yl)carbonyl)-7-fluoro-2H-1,4-benzoxazin-3(4H)-one]",–,102
"O=C1COc2cc(F)c(C(=O)N3CCC(O)(COc4ccc(F)cc4Cl)CC3)cc2N1 [Example 73, 6-((4-((2-chloro-4-fluorophenoxy)methyl)-4-hydroxypiperidin-1-yl)carbonyl)-7-fluoro-2H-1,4-benzoxazin-3(4H)-one]",102,–
"CC(Oc1cccc(F)c1F)C1CN(C(=O)c2cc3c(cc2F)OCC(=O)N3)C1 (centres unmarked) [Example 302, 6-((3-(1-(2,3-difluorophenoxy)ethyl)azetidin-1-yl)carbonyl)-7-fluoro-2H-1,4-benzoxazin-3(4H)-one]",102,–
"CC(Oc1ccc(F)cc1Cl)C1CCN(C(=O)c2cc3c(cc2F)OCC(=O)N3)CC1 (centres unmarked) [Example 296, 6-((4-(1-(2-chloro-4-fluorophenoxy)ethyl)piperidin-1-yl)carbonyl)-7-fluoro-2H-1,4-benzoxazin-3(4H)-one]",–,101
"COC(=O)c1ccc(OCC2CCN(C(=O)c3cc4c(cc3F)OCC(=O)N4)CC2)c(Cl)c1 [Example 84, methyl-3-chloro-4-((1-((7-fluoro-3-oxo-3,4-dihydro-2H-1,4-benzoxazin-6-yl)carbony)piperidin-4-yl)methoxy)benzoate]",97,–
"O=C(c1ccc2ccc(=O)[nH]c2c1)N1CCC(COc2ccc(F)cc2Cl)CC1 [Example 79, 7-((4-((2-chloro-4-fluorophenoxy)methyl)piperidin-1-yl)carbonyl)quinolin-2(1H)-one]",103,–
"N#Cc1cc(C(F)(F)F)ccc1OCC1CCN(C(=O)c2ccc3c(c2)NC(=O)C3)CC1 [Example 69, 2-((1-((2-oxo-2,3-dihydro-1H-indol-6-yl)carbonyl)piperidin-4-yl)methoxy)-5-(trifluoromethyl)benzonitrile]",99,–
"CC(Oc1cc(F)cc(F)c1)C1CN(C(=O)c2cc3c(cc2F)OCC(=O)N3)C1 (centres unmarked) [Example 305, 6-((3-(1-(3,5-difluorophenoxy)ethyl)azetidin-1-yl)carbonyl)-7-fluoro-2H-1,4-benzoxazin-3(4H)-one]",100,–
"CC(Oc1ccc(F)cc1Cl)C1CN(C(=O)c2cc3c(cc2F)OCC(=O)N3)C1 (centres unmarked) [Example 297, 6-((3-(1-(2-chloro-4-fluorophenoxy)ethyl)azetidin-1-yl)carbonyl)-7-fluoro-2H-1,4-benzoxazin-3(4H)-one]",99,–
"O=C1COc2ccc(C(=O)N3CC(OCc4ccccc4)C3)cc2N1 [Example 326, 6-((3-(benzyloxy)azetidin-1-yl)carbonyl)-2H-1,4-benzoxazin-3(4H)-one]",98,–
"Cc1ccc(OCC2CCN(C(=O)c3ccc4c(c3)NC(=O)CO4)CC2)c(C)c1 [Example 35, 6-((4-((2,4-dimethylphenoxy)methyl)piperidin-1-yl)carbonyl)-2H-1,4-benzoxazin-3(4H)-one]",98,–
"O=C1COc2cc(F)c(C(=O)N3CC(COc4ccc(-c5cnn(C(F)F)c5)cc4F)C3)cc2N1 [Example 247, 6-((3-((4-(1-(difluoromethyl)-1H-pyrazol-4-yl)-2-fluorophenoxy)methyl)azetidin-1-yl)carbonyl)-7-fluoro-2H-1,4-benzoxazin-3(4H)-one]",96,–
"O=C1COc2cc(F)c(C(=O)N3CC(COc4ccc(Cl)cc4-c4cnc(C(F)(F)F)nc4)C3)cc2N1 [Example 222, 6-((3-((4-chloro-2-(2-(trifluoromethyl)pyrimidin-5-yl)phenoxy)methyl)azetidin-1-yl)carbonyl)-7-fluoro-2H-1,4-benzoxazin-3(4H)-one]",101,–
"CC(Oc1ccc(F)cc1Cl)C1CCN(C(=O)c2cc3c(cc2F)OCC(=O)N3)CC1 (centres unmarked) [Example 295, 6-((4-(1-(2-chloro-4-fluorophenoxy)ethyl)piperidin-1-yl)carbonyl)-7-fluoro-2H-1,4-benzoxazin-3(4H)-one]",–,101

# The next lines start with the values.
inhibition at 10 µM [%],% inhibition (10 μM) [%],Structure (SMILES)
94,–,"O=C1COc2cc(F)c(C(=O)N3CC(COc4ccc(-c5ccc(F)cn5)cc4F)C3)cc2N1 [Example 228, 7-fluoro-6-((3-((2-fluoro-4-(5-fluoropyridin-2-yl)phenoxy)methyl)azetidin-1-yl)carbonyl)-2H-1,4-benzoxazin-3(4H)-one]"
99,–,"Cc1cncc(-c2ccc(OCC3CN(C(=O)c4cc5c(cc4F)OCC(=O)N5)C3)c(F)c2)c1 [Example 236, 7-fluoro-6-((3-((2-fluoro-4-(5-methylpyridin-3-yl)phenoxy)methyl)azetidin-1-yl)carbonyl)-2H-1,4-benzoxazin-3(4H)-one]"
99,–,"Cc1ccc(OCC2CN(C(=O)c3cc4c(cc3F)OCC(=O)N4)C2)cc1Cl [Example 183, 6-((3-((3-chloro-4-methylphenoxy)methyl)azetidin-1-yl)carbonyl)-7-fluoro-2H-1,4-benzoxazin-3(4H)-one]"
101,–,"O=C1COc2cc(F)c(C(=O)N3CC(OCc4ccc(F)cc4Cl)C3)cc2N1 [Example 322, 6-((3-((2-chloro-4-fluorobenzyl)oxy)azetidin-1-yl)carbonyl)-7-fluoro-2H-1,4-benzoxazin-3(4H)-one]"
99,–,"O=C1COc2cc(F)c(C(=O)N3CC(COc4cccc(Oc5ccccc5)c4)C3)cc2N1 [Example 129, 7-fluoro-6-((3-((3-phenoxyphenoxy)methyl)azetidin-1-yl)carbonyl)-2H-1,4-benzoxazin-3(4H)-one]"
101,–,"O=C1COc2cc(F)c(C(=O)N3CC(COc4ccc(Cl)cc4C4=CCOCC4)C3)cc2N1 [Example 211, 6-((3-((4-chloro-2-(3,6-dihydro-2H-pyran-4-yl)phenoxy)methyl)azetidin-1-yl)carbonyl)-7-fluoro-2H-1,4-benzoxazin-3(4H)-one]"
102,–,"O=C1COc2cc(F)c(C(=O)N3CC(COc4ccc5c(c4)CCCC5)C3)cc2N1 [Example 102, 7-fluoro-6-((3-((5,6,7,8-tetrahydronaphthalen-2-yloxy)methyl)azetidin-1-yl)carbonyl)-2H-1,4-benzoxazin-3(4H)-one]"
104,–,"O=C1COc2cc(F)c(C(=O)N3CC(COc4ccc(Cl)cc4-c4ccncc4)C3)cc2N1 [Example 206, 6-((3-((4-chloro-2-(pyridin-4-yl)phenoxy)methyl)azetidin-1-yl)carbonyl)-7-fluoro-2H-1,4-benzoxazin-3(4H)-one]"
102,–,"Cc1ccc(-c2cc(Cl)ccc2OCC2CN(C(=O)c3cc4c(cc3F)OCC(=O)N4)C2)cn1 [Example 190, 6-((3-((4-chloro-2-(6-methylpyridin-3-yl)phenoxy)methyl)azetidin-1-yl)carbonyl)-7-fluoro-2H-1,4-benzoxazin-3(4H)-one]"
96,–,"O=C1COc2cc(F)c(C(=O)N3CC(COc4noc5ccc(Cl)cc45)C3)cc2N1 [Example 180, 6-((3-(((5-chloro-1,2-benzoxazol-3-yl)oxy)methyl)azetidin-1-yl)carbonyl)-7-fluoro-2H-1,4-benzoxazin-3(4H)-one]"
105,–,"O=C1COc2cc(F)c(C(=O)N3CC(COc4ccc(Cl)cc4Cl)C3)cc2N1 [Example 76, 6-((3-((2,4-dichlorophenoxy)methyl)azetidin-1-yl)carbonyl)-7-fluoro-2H-1,4-benzoxazin-3(4H)-one]"
